Assay results as given in patent US20180344702A1, “METHODS FOR TREATING PATIENTS WITH HEMATOLOGIC MALIGNANCIES” (Aptose Biosciences, Inc., priority 2017, published 2018).
pIC50, pKd: −log10 of the molar value.

Columns and labels:
FLT3(D835Y) [1] = molecular target: T1, FLT3(D835Y) (Homo sapiens, UniProt P36888, D835Y); assay: Binding constant (Kd), competition binding with qPCR readout
T1 construct: made in house; host or cells: E. coli BL21-derived host (T7 phage) or HEK-293

Ba/F3-ITD (FLT3-ITD) = assay: Antiproliferative activity (Table 6); format: cell-based, Murin; settings: 72 h
EOL-1 [2] = assay: Cytotoxicity in high serum conditions (MTS); format: cell-based; settings: EOL-1, 72 hours, 10% vs 30%, 50%, 80% FBS
Experimental: Compound 7 was tested in a dose-dependent manner at different serum concentrations. […] In this experiment, MV4-11 (n=6) and EOL-1(n=3˜6) cells were treated with or without Compound 7 for 72 hours in medium containing normal (10%) or high serum (30%, 50%, 80%) FBS with an MTS assay serving as an end point.

[3] = tested on: Ba/F3 cells transfected with FLT3 WT; assay: Cytotoxicity in isogenic transfected Ba/F3 cells (Table 4); format: cell-based, Murin; settings: Mus musculus, BaF3, read-out: IC50 in Transfected Ba/F3 cells, FLT3 WT
Ramos [4] = assay: Apoptosis in B-cell malignancies (annexin V/PI, cleaved PARP); format: cell-based; settings: increasing concentrations
Experimental: Mechanistic studies were undertaken to determine the mechanism of action for Compound 7. The apoptotic state of treated cells was determined by staining with annexin V and propidium iodide (PI), then analysis with the BD Accuri C6 flow cytometer, whereby live cells are annexin V/PI negative, early apoptotic cells are annexin V positive and late apoptotic cells are annexin V and PI positive. In addition production of cleaved PARP, a classic apoptotic marker, was assayed by western blotting with specific antibodies.

BTK C481S = BTK C481S (Homo sapiens, UniProt Q06187, C481S); assay: Inhibition of BTK, kinase IC50; format: biochemical; set-up: RBC (only as the name of the general kinase protocol)
Experimental: (§1) RBC HotSpot Kinase Assay Protocol:
(§2) Reagents used: Base Reaction buffer; 20 mM Hepes (pH 7.5), 10 mM MgCl2, 1 mM EGTA, 0.02% Brij35, 0.02 mg/ml BSA, 0.1 mM Na3VO4, 2 mM DTT, 1% DMSO. Required cofactors are added individually to each kinase reaction.
(§3) Compound 7 was dissolved in 100% DMSO to a specified concentration. The serial dilution was conducted by epMotion 5070 in DMSO. The substrate was freshly prepared in Reaction Buffer and any required cofactors to the substrate solution were added. The kinase was added to the solution and gently mixed. Compound 7 was added in 100% DMSO into the kinase reaction mixture by Acoustic technology (Echo550; nanoliter range), and incubated for 20 min at room temperature. ^33P-ATP (Specific activity 10 μCi/μl) was added into the reaction mixture to initiate the reaction, which was incubated for 2 hours, whereupon kinase activity was detected by the filter-binding method.

KG-1 = assay: Cytotoxicity, MTS cell viability; format: cell-based; settings: Homo sapiens, AML, 72 hour MTS
Experimental: (§4) Cytotoxicity procedure: Cells were seeded in 96-well plate and treated with vehicle DMSO or Compound 7 at a specified concentration and incubated for 72 hours.

Jurkat = assay: Cytotoxicity, MTS cell viability; format: cell-based; settings: Homo sapiens, ALL, 72 hour MTS
Experimental: as §4

MUTZ-8 = assay: Cytotoxicity, MTS cell viability; format: cell-based; settings: AML, 72 hour MTS
Experimental: as §4

HEL92.1.7 = assay: Cytotoxicity, MTS cell viability; format: cell-based; settings: Homo sapiens, HEL 92.1.7, AML, 72 hour MTS
Experimental: as §4

SKM-1 = assay: Cytotoxicity, MTS cell viability; format: cell-based; settings: Homo sapiens, AML, 72 hour MTS
Experimental: as §4

MV4-11 = assay: Cytotoxicity, MTS cell viability; format: cell-based; settings: Homo sapiens, AML, 72 hour MTS
Experimental: as §4

THP-1 = assay: Cytotoxicity, MTS cell viability; format: cell-based; settings: Homo sapiens, AML, 72 hour MTS
Experimental: as §4

HL60 = assay: Cytotoxicity, MTS cell viability; format: cell-based; settings: Homo sapiens, HL-60, AML, 72 hour MTS
Experimental: as §4

NOM0-1 = assay: Cytotoxicity, MTS cell viability; format: cell-based; settings: AML, 72 hour MTS
Experimental: as §4

EOL-1 [5] = assay: Cytotoxicity, MTS cell viability; format: cell-based; settings: Homo sapiens, EOL1, AML, 72 hour MTS
Experimental: as §4

Molm-13 = assay: Cytotoxicity, MTS cell viability; format: cell-based; settings: Homo sapiens, AML, 72 hour MTS
Experimental: as §4

FLT3(D835Y) [6] = molecular target: T1, FLT3(D835Y); assay: Inhibition of FLT3 mutants, kinase IC50; format: biochemical
Experimental: as §1, §2, §3

Ba/F3-D835Y (FLT3-D835Y) = assay: Antiproliferative activity (Table 6); format: cell-based, Murin; settings: 72 h
THP-1 (FLT3-WT, t(9:11)) = assay: Antiproliferative activity (Table 6); format: cell-based; settings: Homo sapiens, THP-1, 72 h
[7] = tested on: Ba/F3 cells transfected with FLT3 ITD-F691L; assay: Cytotoxicity in isogenic transfected Ba/F3 cells (Table 4); format: cell-based, Murin; settings: Mus musculus, BaF3, read-out: IC50 in Transfected Ba/F3 cells, FLT3 ITD-F691L
[8] = tested on: Ba/F3 cells transfected with FLT3 D835Y; assay: as above; format: cell-based, Murin; settings: Mus musculus, BaF3, read-out: IC50 in Transfected Ba/F3 cells, FLT3 D835Y
Ramos [9] = assay: Polyploidy in B-cell lines (Edu and PI staining, FACS); format: cell-based; settings: 5 nM
Experimental: Further mechanistic studies were undertaken to fully elucidate Compound 7's potent cytotoxicity. B-cell lines were treated with vehicle or Compound 7 for 24-72 hours and the increase in DNA content or polyploidy phenotype was assessed using Edu and PI staining followed by FACS analysis using the BD Accuri C6 flow cytometer.
Mino and Ramos cell lines were treated with increasing concentrations of.

[10] = tested on: various heme cell lines (MV4-11, NOMO-1, and KG-1 cells); assay: Polyploidy, EdU and PI staining with FACS; format: cell-based; settings: 24 hours, increasing concentrations
Experimental: MV4-11, NOMO-1, and KG-1 cells were treated at increasing concentrations of Compound 7 for 24 hours, and the increase in DNA content or polploidy phenotype was assessed using EdU and PI staining followed by FACS analysis using the BD Accuri C6 flow.

[11] = tested on: MOLM13 (FLT3-ITD, t(9:11)); assay: Antiproliferative activity (Table 6); format: cell-based; settings: Homo sapiens, MOLM-13, 72 h

Sequence of BTK C481S (Q06187 whole entry C481S): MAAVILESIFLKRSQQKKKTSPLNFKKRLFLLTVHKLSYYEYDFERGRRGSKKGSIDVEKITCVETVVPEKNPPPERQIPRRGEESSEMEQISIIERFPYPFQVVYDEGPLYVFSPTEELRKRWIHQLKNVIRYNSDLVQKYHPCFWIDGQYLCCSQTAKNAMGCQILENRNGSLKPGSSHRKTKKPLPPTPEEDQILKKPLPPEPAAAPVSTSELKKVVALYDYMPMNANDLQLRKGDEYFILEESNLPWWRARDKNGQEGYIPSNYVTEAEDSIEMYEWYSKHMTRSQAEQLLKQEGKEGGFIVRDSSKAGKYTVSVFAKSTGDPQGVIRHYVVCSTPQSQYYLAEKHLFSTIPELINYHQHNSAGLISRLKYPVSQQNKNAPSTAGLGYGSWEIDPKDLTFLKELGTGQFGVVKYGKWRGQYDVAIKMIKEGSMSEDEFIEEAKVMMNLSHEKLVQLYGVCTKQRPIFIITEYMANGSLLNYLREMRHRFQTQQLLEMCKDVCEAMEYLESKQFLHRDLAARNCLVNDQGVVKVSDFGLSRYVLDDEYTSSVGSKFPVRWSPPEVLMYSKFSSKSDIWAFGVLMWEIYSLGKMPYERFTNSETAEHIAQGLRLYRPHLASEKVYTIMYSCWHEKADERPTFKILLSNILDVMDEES

Cc1cnc(-c2ccc(-c3ccc(NC(=O)Nc4c(F)cc(F)cc4F)cc3F)c3c2C(=O)NC3)[nH]1 [Compound 7, 1-{3-fluoro-4-[7-(5-methyl-1H-imidazol-2-yl)-1-oxo-2,3-dihydro-1H-isoindol-4-yl]-phenyl}-3-(2,4,6-trifluorophenyl)urea]
pKd (FLT3(D835Y) [1]): 8.38
pIC50 (Ba/F3-ITD (FLT3-ITD)): 9.52
Activity at high serum concentration (EOL-1 [2]): retains high activity at high serum concentration
pIC50 [3]: 7.95
Apoptosis induction versus ibrutinib (Ramos [4]): induced apoptosis more effectively than ibrutinib at all concentrations tested
pIC50 (BTK C481S): 8.60
pIC50 (KG-1): 7.54
pIC50 (Jurkat): 5.80
pIC50 (MUTZ-8): 6.10
pIC50 (HEL92.1.7): 5.33
pIC50 (SKM-1): 6.09
pIC50 (MV4-11): 9.62
pIC50 (THP-1): 5.53
pIC50 (HL60): 6.55
pIC50 (NOM0-1): 7.69
pIC50 (EOL-1 [5]): 10.35
pIC50 (Molm-13): 9.40
pIC50 (FLT3(D835Y) [6]): 6.78
pIC50 (Ba/F3-D835Y (FLT3-D835Y)): 8.08
pIC50 (THP-1 (FLT3-WT, t(9:11))): 8.41
pIC50 [7]: 8.00
pIC50 [8]: 8.06
Polyploidy (>4n) followed by apoptosis (Ramos [9]): effectively induced polyploidy (>4n) followed by apoptosis
Polyploidies [10]: induce polyploidies
pIC50 [11]: 9.09
